Data reported in US20230133672A1, “FUSION POLYPEPTIDE COMPRISING GDF15 AND POLYPEPTIDE REGION CAPABLE OF O-GLYCOSYLATION” (LG CHEM, LTD., priority 2019, published 2023).

What was measured:
[1] = Single administration: feed intake in DIO mice; assay type: in vivo, Mouse, C57BL/6J-DIO; design: unit not given here
Protocol: The pharmacological effect of the fusion polypeptides produced and purified in Example 1 above was tested in mice (C57BL/6J, 6-week-old, male, 100 mice; Raonbio).
In the present example, DI0 mouse model (Mouse, C57BL/6J-DIO, male, 100 mice, 14-week-old (obesity feed feeding for 8 weeks)) in which obesity was induced by feeding a high-fat diet into the C57BL/6J mice for 8 weeks was used.
The administration of the test substances HT-ID1-GDF15, HT-ID2-GDF15, and HT-ID3-GDF15 and the control substance Semaglutide (Bachem) was conducted from the next day after group separation, and the administration time was performed at 9 AM every day. Subcutaneous administration was conducted for all the control substance and test substances. For the administration route of the control substance and test substances, subcutaneous administration was selected depending on the clinically scheduled administration route.
For all the control substance and test substances, the amount of the administration solution was set to 5 mL/kg and the administration liquid by individual was calculated on the basis of the recently measured body weight and it was administered by subcutaneous injection once on the start day of the test using a disposable syringe (1 mL). The test substances were administered only once. For comparison, the control group in which the control substance Semaglutide was administered was prepared, and the comparison group in which Semaglutide was administered was administered once a day, and all the administration was progressed from 9 AM.
(§1) In addition, after administering the test substances into mice, the daily feed intake was measured, and the feeding amount was measured using an electronic scale for each breeding box, and the remaining amount was measured to calculate the daily feed intake. In case of an individual that gnawed heavily on heed, it was excluded from the measurement.
(§2) All the experimental results obtained in the present example were expressed as mean±standard error and tested using Prism5 (version 5.01). One-way analysis of variance (ANOVA) was performed on all data, and when significance was observed, Dunnett's test was performed to find out the test groups with a significant difference from the control group (significance level: two-sided 5% and 1%, 0.1%).

[2] = Repeated administration: feed intake in DIO mice; assay type: in vivo, Mouse, C57BL/6J-DIO; design: unit not given here
Protocol: as §1, §2
Except for the administration dose, animal number and administration cycle, most of the test processes were the same as in Example 2.1.1 above.
The test substances were administered twice a week (Days 0, 4, 7, 11, 14, 18, 21, 25) for a total of 8 times. For comparison, the control group in which the control substance Semaglutide was administered every day was prepared, and the comparison group in which Semaglutide was administered every day was administered once a day daily, and all the administration was progressed from 9 AM.

Substance: HT-ID3-GDF15: Fusion polypeptide: His-Tag, TEV cleavage site, three IgD hinges, GS linker, GDF15 (SEQ ID NO: 3)
- Feed intake, Mean ([1]; Day 0, 10 nmol/kg Single Inj.): 3.2
- Feed intake, Mean ([1]; Day 1, 10 nmol/kg Single Inj.): 2.0
- Feed intake, Mean ([1]; Day 2, 10 nmol/kg Single Inj.): 2.5
- Feed intake, Mean ([1]; Day 3, 10 nmol/kg Single Inj.): 2.3
- Feed intake, Mean ([1]; Day 4, 10 nmol/kg Single Inj.): 2.3
- Feed intake, Mean ([1]; Day 5, 10 nmol/kg Single Inj.): 2.7
- Feed intake, Mean ([1]; Day 6, 10 nmol/kg Single Inj.): 2.8
- Feed intake, Mean ([1]; Day 7, 10 nmol/kg Single Inj.): 3.3
- Feed intake, Mean ([1]; Day 8, 10 nmol/kg Single Inj.): 3.3
- Feed intake, Mean ([1]; Day 9, 10 nmol/kg Single Inj.): 3.6
- Feed intake, Mean ([2]; Day 1, 3 nmol/kg twice a week): 2.9
- Feed intake, Mean ([2]; Day 1, 10 nmol/kg twice a week): 2.9
- Feed intake, Mean ([2]; Day 1, 30 nmol/kg twice a week): 2.5
- Feed intake, Mean ([2]; Day 2, 3 nmol/kg twice a week): 1.5
- Feed intake, Mean ([2]; Day 2, 10 nmol/kg twice a week): 1.7
- Feed intake, Mean ([2]; Day 2, 30 nmol/kg twice a week): 1.6
- Feed intake, Mean ([2]; Day 3, 3 nmol/kg twice a week): 1.9
- Feed intake, Mean ([2]; Day 3, 10 nmol/kg twice a week): 2.3
- Feed intake, Mean ([2]; Day 3, 30 nmol/kg twice a week): 2.1
- Feed intake, Mean ([2]; Day 4, 3 nmol/kg twice a week): 1.9
- Feed intake, Mean ([2]; Day 4, 10 nmol/kg twice a week): 2.2
- Feed intake, Mean ([2]; Day 4, 30 nmol/kg twice a week): 2.2
- Feed intake, Mean ([2]; Day 5, 3 nmol/kg twice a week): 2.0
- Feed intake, Mean ([2]; Day 5, 10 nmol/kg twice a week): 2.1
- Feed intake, Mean ([2]; Day 5, 30 nmol/kg twice a week): 2.3
- Feed intake, Mean ([2]; Day 6, 3 nmol/kg twice a week): 1.6
- Feed intake, Mean ([2]; Day 6, 10 nmol/kg twice a week): 1.9
- Feed intake, Mean ([2]; Day 6, 30 nmol/kg twice a week): 1.8
- Feed intake, Mean ([2]; Day 7, 3 nmol/kg twice a week): 2.1
- Feed intake, Mean ([2]; Day 7, 10 nmol/kg twice a week): 2.2
- Feed intake, Mean ([2]; Day 7, 30 nmol/kg twice a week): 2.2
- Feed intake, Mean ([2]; Day 8, 3 nmol/kg twice a week): 2.1
- Feed intake, Mean ([2]; Day 8, 10 nmol/kg twice a week): 2.1
- Feed intake, Mean ([2]; Day 8, 30 nmol/kg twice a week): 2.1
- Feed intake, Mean ([2]; Day 9, 3 nmol/kg twice a week): 1.9
- Feed intake, Mean ([2]; Day 9, 10 nmol/kg twice a week): 2.1
- Feed intake, Mean ([2]; Day 9, 30 nmol/kg twice a week): 2.0
- Feed intake, Mean ([2]; Day 10, 3 nmol/kg twice a week): 2.4
- Feed intake, Mean ([2]; Day 10, 10 nmol/kg twice a week): 2.4
- Feed intake, Mean ([2]; Day 10, 30 nmol/kg twice a week): 2.5
- Feed intake, Mean ([2]; Day 11, 3 nmol/kg twice a week): 2.5
- Feed intake, Mean ([2]; Day 11, 10 nmol/kg twice a week): 3.0
- Feed intake, Mean ([2]; Day 11, 30 nmol/kg twice a week): 2.9
- Feed intake, Mean ([2]; Day 12, 3 nmol/kg twice a week): 3.9
- Feed intake, Mean ([2]; Day 12, 10 nmol/kg twice a week): 4.1
- Feed intake, Mean ([2]; Day 12, 30 nmol/kg twice a week): 4.0
- Feed intake, Mean ([2]; Day 13, 3 nmol/kg twice a week): 2.9
- Feed intake, Mean ([2]; Day 13, 10 nmol/kg twice a week): 2.5
- Feed intake, Mean ([2]; Day 13, 30 nmol/kg twice a week): 2.1
- Feed intake, Mean ([2]; Day 14, 3 nmol/kg twice a week): 3.2
- Feed intake, Mean ([2]; Day 14, 10 nmol/kg twice a week): 3.3
- Feed intake, Mean ([2]; Day 14, 30 nmol/kg twice a week): 3.0
- Feed intake, Mean ([2]; Day 15, 3 nmol/kg twice a week): 3.1
- Feed intake, Mean ([2]; Day 15, 10 nmol/kg twice a week): 3.2
- Feed intake, Mean ([2]; Day 15, 30 nmol/kg twice a week): 3.1
- Feed intake, Mean ([2]; Day 16, 3 nmol/kg twice a week): 2.7
- Feed intake, Mean ([2]; Day 16, 10 nmol/kg twice a week): 2.2
- Feed intake, Mean ([2]; Day 16, 30 nmol/kg twice a week): 1.9
- Feed intake, Mean ([2]; Day 17, 3 nmol/kg twice a week): 3.0
- Feed intake, Mean ([2]; Day 17, 10 nmol/kg twice a week): 3.3
- Feed intake, Mean ([2]; Day 17, 30 nmol/kg twice a week): 3.0
- Feed intake, Mean ([2]; Day 18, 3 nmol/kg twice a week): 3.1
- Feed intake, Mean ([2]; Day 18, 10 nmol/kg twice a week): 3.3
- Feed intake, Mean ([2]; Day 18, 30 nmol/kg twice a week): 3.2
- Feed intake, Mean ([2]; Day 19, 3 nmol/kg twice a week): 3.3
- Feed intake, Mean ([2]; Day 19, 10 nmol/kg twice a week): 3.4
- Feed intake, Mean ([2]; Day 19, 30 nmol/kg twice a week): 3.3
- Feed intake, Mean ([2]; Day 20, 3 nmol/kg twice a week): 2.7
- Feed intake, Mean ([2]; Day 20, 10 nmol/kg twice a week): 2.4
- Feed intake, Mean ([2]; Day 20, 30 nmol/kg twice a week): 1.9
- Feed intake, Mean ([2]; Day 21, 3 nmol/kg twice a week): 3.0
- Feed intake, Mean ([2]; Day 21, 10 nmol/kg twice a week): 3.1
- Feed intake, Mean ([2]; Day 21, 30 nmol/kg twice a week): 3.1
- Feed intake, Mean ([2]; Day 22, 3 nmol/kg twice a week): 3.1
- Feed intake, Mean ([2]; Day 22, 10 nmol/kg twice a week): 3.2
- Feed intake, Mean ([2]; Day 22, 30 nmol/kg twice a week): 3.4
- Feed intake, Mean ([2]; Day 23, 3 nmol/kg twice a week): 2.9
- Feed intake, Mean ([2]; Day 23, 10 nmol/kg twice a week): 2.7
- Feed intake, Mean ([2]; Day 23, 30 nmol/kg twice a week): 2.3
- Feed intake, Mean ([2]; Day 24, 3 nmol/kg twice a week): 3.1
- Feed intake, Mean ([2]; Day 24, 10 nmol/kg twice a week): 3.1
- Feed intake, Mean ([2]; Day 24, 30 nmol/kg twice a week): 3.3
- Feed intake, Mean ([2]; Day 25, 3 nmol/kg twice a week): 2.9
- Feed intake, Mean ([2]; Day 25, 10 nmol/kg twice a week): 3.3
- Feed intake, Mean ([2]; Day 25, 30 nmol/kg twice a week): 3.2
- Feed intake, Mean ([2]; Day 26, 3 nmol/kg twice a week): 3.0
- Feed intake, Mean ([2]; Day 26, 10 nmol/kg twice a week): 3.3
- Feed intake, Mean ([2]; Day 26, 30 nmol/kg twice a week): 3.2
- Feed intake, Mean ([2]; Day 27, 3 nmol/kg twice a week): 2.8
- Feed intake, Mean ([2]; Day 27, 10 nmol/kg twice a week): 2.7
- Feed intake, Mean ([2]; Day 27, 30 nmol/kg twice a week): 2.2
- Feed intake, Mean ([2]; Day 28, 3 nmol/kg twice a week): 2.7
- Feed intake, Mean ([2]; Day 28, 10 nmol/kg twice a week): 3.2
- Feed intake, Mean ([2]; Day 28, 30 nmol/kg twice a week): 3.2
